Holding throughout (format): in vivo
Assay [1] concerns Spodoptera litura. Put plainly: Pesticidal test against Spodoptera litura (cabbage leaf immersion). The following applies: 144 h, 2-stage larvae on treated cabbage leaf, 25° C., after 6 days, read-out: pesticidal rate. As to the method: Pesticidal Test Against Spodoptera litura A piece of a cabbage leaf was immersed for 30 seconds in a chemical solution in which a test compound had been diluted at a predetermined concentration, and air-dried, and then put into a 7 cm polyethylene cup having a filter paper laid on the bottom thereof, and 2-stage larvae of Spodoptera litura were released. They were left to stand in a thermostatic chamber at 25° C., and the numbers of the living pests and the dead pests were examined after 6 days. The test was carried out with five larvae per group in two replicates.

The next assay has as its system Plutella xylostella. Put plainly: Pesticidal test against Plutella xylostella (cabbage leaf immersion). The following applies: 144 h, 3-stage larvae on treated cabbage leaf, 25° C., after 6 days, read-out: pesticidal rate. As to the method: Pesticidal Test Against Plutella xylostella A piece of a cabbage leaf was immersed for 30 seconds in a chemical solution in which a test compound had been diluted at a predetermined concentration, and air-dried, and then put into a 7 cm polyethylene cup having a filter paper laid on the bottom thereof, and 3-stage larvae of Plutella xylostella were released. They were left to stand in a thermostatic chamber at 25° C., and the numbers of the living pests and the dead pests were examined after 6 days. The test was carried out with five larvae per group in two replicates.

Another assay has as its system Musca domestica. Description: Pesticidal test against Musca domestica (petri dish residue). The following applies: 24 h, acetone solution dried in petri dish, female adults, 25° C., after 1 day, read-out: pesticidal rate. As to the method: Pesticidal Test Against Musca domestica
1 ml of an acetone solution in which a test compound had been diluted at a predetermined concentration was added dropwise to a petri dish having a diameter of 9 cm, and air-dried, and then the female adults of Musca domestica were released and the petri dish was capped. They were left to stand in a thermostatic chamber at 25° C., and the numbers of the living pests and the dead pests were examined after 1 day. The test was carried out with […] in two replicates.

Assay [2] has as its system Spodoptera litura. Description: Pesticidal test of penetration migration against Spodoptera litura (radish seedling root immersion). The following applies: 72 h, radish seedling root immersed 2 days, leaf fed to 2-stage larvae, 25° C., after 3 days, read-out: pesticidal rate. As to the method:
Pesticidal Test of Penetration Migration against Spodoptera litura A root portion of a radish seedling was immersed for 2 days in a chemical solution in which a test compound had been diluted at a predetermined concentration, then the leaf was cut and put into a 7 cm polyethylene cup having a filter paper laid on the bottom thereof, and 2-stage larvae of Spodoptera litura were released. They were left to stand in a thermostatic chamber at 25° C., and the numbers of the living pests and the dead pests were examined after 3 days. The test was carried out with five larvae per group in two replicates.

Where only a bound is given, the exact number is not on record here.

The values below come from patent publication US9084420B2, “Amide derivative, pest control agent containing the amide derivative, and pest controlling method” (Mitsui Chemicals Agro, Inc., priority 2008, dated 2015).

With `CC(=O)CCN(C(=O)c1ccccc1)c1cccc(C(=O)Nc2c(C)cc(C(F)(C(F)(F)F)C(F)(F)F)cc2C)c1` [5-100, N-(3-(2,6-dimethyl-4-(perfluoropropan-2-yl)phenylcarbamoyl)phenyl)-N-(3-oxobutyl)benzamide], the pest or weed control at 100 ppm in the assay with Spodoptera litura [1] and with Plutella xylostella was at least 70% each time. Further, the pest or weed control at 1000 ppm with Musca domestica is at least 70%.

For the compound `N#Cc1cccc(C(=O)N(CCC(=O)NO)c2cccc(C(=O)Nc3c(Br)cc(C(F)(C(F)(F)F)C(F)(F)F)cc3Br)c2F)c1` [5-33, 3-(3-cyano-N-(3-(hydroxyamino)-3-oxopropyl)benzamide)-N-(2,6-dibromo-4-(perfluoropropan-2-yl)phenyl)-2-fluorobenzamide], the pest or weed control at 100 ppm with Spodoptera litura [1] and in the assay on Plutella xylostella was at least 70% in each case. In the assay with Spodoptera litura [2], the pest or weed control at 1 ppm is at least 70%.

With `N#Cc1ccc(C(=O)N(CCS(N)(=O)=O)c2cccc(C(=O)Nc3c(Br)cc(C(F)(C(F)(F)F)C(F)(F)F)cc3Br)c2F)cc1` [2-133, 3-(4-cyano-N-(2-sulfamoylethyl)benzamide)-N-(2,6-dibromo-4-(perfluoropropan-2-yl)phenyl)-2-fluorobenzamide], the pest or weed control at 100 ppm in the assay on Spodoptera litura [1] and in the assay on Plutella xylostella was at least 70% each time. In addition, the pest or weed control at 1 ppm in the assay with Spodoptera litura [2] is at least 70%.

Consider `CSCCN(C(=O)c1ccccc1)c1cccc(C(=O)N(C)c2c(C)cc(C(F)(C(F)(F)F)C(F)(F)F)cc2C)c1` [5-71, N-(2,6-dimethyl-4-(perfluoropropan-2-yl)phenyl)-N-methyl-3-(N-(2-(methylthio)ethyl)benzamide)benzamide], for which the pest or weed control at 100 ppm in the assay with Spodoptera litura [1] and in the assay with Plutella xylostella was at least 70% throughout.

For the compound `Cc1cc(C(F)(C(F)(F)F)C(F)(F)F)cc(C)c1NC(=O)c1cccc(N(CCC(N)=O)C(=O)c2ccccc2)c1F` [1-21, 3-(N-(3-amino-3-oxopropyl)benzamide)-N-(2,6-dimethyl-4-(perfluoropropan-2-yl)phenyl)-2-fluorobenzamide], the pest or weed control at 100 ppm in the assay on Spodoptera litura [1] and in the assay on Plutella xylostella was at least 70% each time. For the same compound, the pest or weed control at 1 ppm in the assay on Spodoptera litura [2] was at least 70%.

Regarding `Cc1cc(C(F)(C(F)(F)F)C(F)(F)F)cc(C)c1N(CC(N)=O)C(=O)c1cccc(N(C)C(=O)c2ccccc2)c1F` [7-220, N-(2-amino-2-oxoethyl)-N-(2,6-dimethyl-4-(perfluoropropan-2-yl)phenyl)-2-fluoro-3-(N-methylbenzamide)benzamide], the pest or weed control at 100 ppm in the assay on Spodoptera litura [1] and in the assay with Plutella xylostella was at least 70% each time.

For the compound `Cc1cc(C(F)(C(F)(F)F)C(F)(F)F)cc(C)c1NC(=O)c1cccc(N(CCC(N)=O)C(=O)c2ccccc2)c1` [1-1, N-(3-amino-3-oxopropyl)-N-(3-(2,6-dimethyl-4-(perfluoropropan-2-yl)phenylcarbamoyl)phenyl)benzamide], the pest or weed control at 100 ppm with Spodoptera litura [1] and with Plutella xylostella was at least 70% throughout.

For `COC(=O)CCN(C(=O)c1ccccc1)c1cccc(C(=O)Nc2c(I)cc(C(F)(C(F)(F)F)C(F)(F)F)cc2C(F)(F)F)c1` [5-80, methyl 3-(N-(3-(2-iodo-4-(perfluoropropan-2-yl)-6-(trifluoromethyl)phenylcarbamoyl)phenyl)benzamide)propanoate], the pest or weed control at 100 ppm with Spodoptera litura [1] and in the assay with Plutella xylostella was at least 70% throughout. Further, the pest or weed control at 1000 ppm in the assay with Musca domestica is at least 70%.

For the compound `Cc1cc(C(F)(C(F)(F)F)C(F)(F)F)cc(C)c1NC(=O)c1cccc(N(CCC#N)C(=O)c2ccccc2)c1` [5-8, N-(2-cyanoethyl)-N-(3-(2,6-dimethyl-4-(perfluoropropan-2-yl)phenylcarbamoyl)phenyl)benzamide], the pest or weed control at 100 ppm with Spodoptera litura [1] and with Plutella xylostella was at least 70% in each case. In the assay with Musca domestica, the pest or weed control at 1000 ppm is at least 70%.

Take `C/C(CCN(C(=O)c1ccccc1)c1cccc(C(=O)Nc2c(C)cc(C(F)(C(F)(F)F)C(F)(F)F)cc2C)c1)=N\O` [5-105, N-(3-(2,6-dimethyl-4-(perfluoropropan-2-yl)phenylcarbamoyl)phenyl)-N-(3-(hydroxyimino)butyl)benzamide]: the pest or weed control at 100 ppm in the assay with Spodoptera litura [1] and with Plutella xylostella was at least 70% each time. In the assay with Musca domestica, the pest or weed control at 1000 ppm was at least 70%.

For `COC(=O)CN(C(=O)c1ccccc1)c1cccc(C(=O)N(CC(=O)OC)c2c(C)cc(C(F)(C(F)(F)F)C(F)(F)F)cc2C)c1F` [8-12, methyl 2-(N-(3((2,6-dimethyl-4-(perfluoropropan-2-yl)phenyl)(2-methoxy-2-oxoethyl)carbamoyl)-2-fluorophenyl)benzamide)acetate], the pest or weed control at 100 ppm in the assay on Spodoptera litura [1] and with Plutella xylostella was at least 70% throughout.

With `NC(=O)CCN(C(=O)c1ccccc1)c1cccc(C(=O)Nc2c(Br)cc(C(F)(C(F)(F)F)C(F)(F)F)cc2Br)c1F` [1-163, 3-(N-(3-amino-3-oxopropyl)benzamide)-N-(2,6-dibromo-4-(perfluoropropan-2-yl)phenyl)-2-fluorobenzamide], the pest or weed control at 100 ppm in the assay on Spodoptera litura [1] and in the assay with Plutella xylostella was at least 70% in each case. For the same compound, the pest or weed control at 1 ppm in the assay with Spodoptera litura [2] is at least 70%.

With `Cc1cc(C(F)(C(F)(F)F)C(F)(F)F)cc(C)c1N(C)C(=O)c1cccc(N(CCO)C(=O)c2ccccc2)c1` [5-35, N-(2,6-dimethyl-4-(perfluoropropan-2-yl)phenyl)-3-(N-(2-hydroxyethyl)benzamide)-N-methylbenzamide], the pest or weed control at 100 ppm in the assay with Spodoptera litura [1] and in the assay with Plutella xylostella was at least 70% each time.

`Cc1cc(C(F)(C(F)(F)F)C(F)(F)F)cc(C)c1NC(=O)c1cccc(N(CCCC(N)=O)C(=O)c2ccccc2)c1` [6-16, N-(4-amino-4-oxobutyl)-N-(3-(2,6-dimethyl-4-(perfluoropropan-2-yl)phenylcarbamoyl)phenyl)benzamide]: the pest or weed control at 100 ppm with Spodoptera litura [1] and with Plutella xylostella was at least 70% in each case. For the same compound, in the assay on Musca domestica, the pest or weed control at 1000 ppm is at least 70%.

In the case of `Cc1cc(C(F)(C(F)(F)F)C(F)(F)F)cc(C)c1N(CCC(N)=O)C(=O)c1cccc(NC(=O)c2ccccc2)c1` [7-1, N-(3-amino-3-oxopropyl)-3-benzamide-N-(2,6-dimethyl-4-(perfluoropropan-2-yl)phenyl)benzamide], the pest or weed control at 100 ppm in the assay with Spodoptera litura [1] and in the assay with Plutella xylostella was at least 70% in each case.

Take `Cc1cc(C(F)(C(F)(F)F)C(F)(F)F)cc(C)c1N(C)C(=O)c1cccc(N(CCCC(N)=O)C(=O)c2ccccc2)c1` [6-15, 3-(N-(4-amino-4-oxobutyl)benzamide)-N-(2,6-dimethyl-4-(perfluoropropan-2-yl)phenyl)-N-methylbenzamide]: the pest or weed control at 100 ppm in the assay on Spodoptera litura [1] and in the assay on Plutella xylostella was at least 70% in each case.

For `CC(C)(C)OC(=O)C(CN(C(=O)c1cccc(C#N)c1)c1cccc(C(=O)Nc2c(Br)cc(C(F)(C(F)(F)F)C(F)(F)F)cc2Br)c1F)C(=O)OC(C)(C)C` [6-44, di-tert-butyl 2-((3-cyano-N-(3-(2,6-dibromo-4-(perfluoropropan-2-yl)phenylcarbamoyl)-2-fluorophenyl)benzamide)methyl)malonate], the pest or weed control at 100 ppm in the assay on Spodoptera litura [1] and in the assay on Plutella xylostella was at least 70% each time. Moreover, the pest or weed control at 1000 ppm in the assay with Musca domestica was at least 70%.

Turning to `O=C(O)CCN(C(=O)c1ccccc1)c1cccc(C(=O)Nc2c(I)cc(C(F)(C(F)(F)F)C(F)(F)F)cc2C(F)(F)F)c1` [5-88, 3-(N-(3-(2-iodo-4-(perfluoropropan-2-yl)-6-(trifluoromethyl)phenylcarbamoyl)phenyl)benzamide)propanoic acid], the pest or weed control at 100 ppm in the assay with Spodoptera litura [1] and with Plutella xylostella was at least 70% each time.

Consider `Cc1cc(C(F)(C(F)(F)F)C(F)(F)F)cc(C)c1N(C)C(=O)c1cccc(N(C[S+](C)[O-])C(=O)c2ccccc2)c1` (centres unmarked) [6-7, N-(2,6-dimethyl-4-(perfluoropropan-2-yl)phenyl)-N-methyl-3-(N-(methylsulfinylmethyl)benzamide)benzamide], for which the pest or weed control at 100 ppm with Spodoptera litura [1] and with Plutella xylostella was at least 70% in each case.

Consider `Cc1cc(C(F)(C(F)(F)F)C(F)(F)F)cc(C)c1NC(=O)c1cccc(N(CCC(=O)NCCCC(NC(=O)OC(C)(C)C)C(=O)OC(C)(C)C)C(=O)c2ccccc2)c1` (centres unmarked) [5-15, tert-butyl 2-(3-(2,6-dimethyl-4-(perfluoropropan-2-yl)phenylcarbamoyl)phenyl)-14,14-dimethyl-1,5,12-trioxo-1-phenyl-13-oxa-2,6,11-triazapentadecane-10-carboxylate], for which the pest or weed control at 100 ppm in the assay on Spodoptera litura [1] and with Plutella xylostella was at least 70% in each case.
